Counter-ions that a name gives are not always drawn. Each block holds one compound with its values, some of them ahead of it.
Key:
[1] = tested on: Enterococcus faecalis PIU 1967; experiment: Assay A: in vitro antibacterial activity, agar dilution MIC; type: cell-based; details: Table 1, Assay A, BHI agar, 35-37° C., about 20 to 24 hours; code B = Enterococcus faecalis PIU 1967; unit assumed
Protocol: (§1) Assay A. Determination of Biological Activity In Vitro Assay of Antibacterial Activity
(§2) Representative compounds of the invention were assayed in vitro for antibacterial activity. Twelve petri dishes containing successive aqueous dilutions of the test compound mixed with sterilized Brain Heart Infusion (BHI) agar (Difco 0418-01-5) (10 mL) were prepared. Each plate was inoculated with 1:100 (or 1:10 for slow-growing strains, such as Micrococcus and Streptococcus) dilutions of up to 32 different microorganisms using a Steers replicator block. The inoculated plates were incubated at 35-37° C. for about 20 to about 24 hours. In addition, a control plate with BHI agar and no test compound was prepared and incubated at the beginning and end of each test.
(§3) An additional plate containing a compound having known susceptibility patterns for the organisms being tested and belonging to the same antibiotic class as the test compound was also prepared and incubated as a further control and to provide test-to-test comparability. Ciprofloxacin was used for this purpose.
(§4) After incubation, each plate was visually inspected. The minimum inhibitory concentration (MIC) was defined as the lowest concentration of drug yielding no growth, a slight haze, or sparsely isolated colonies on the inoculum spot as compared to the growth control.

Escherichia coli JUHL [2] = experiment: as above; type: cell-based; details: Table 1, Assay A, BHI agar, 35-37° C., about 20 to 24 hours; code D = Escherichia coli JUHL; unit assumed
Protocol: as §1, §2, §3, §4

[3] = tested on: Haemophilus influenzae DILL AMP R; experiment: as above; type: cell-based; details: Table 1, Assay A, BHI agar, 35-37° C., about 20 to 24 hours; code E = Haemophilus influenzae DILL AMP R; unit assumed
Protocol: as §1, §2, §3, §4

[4] = tested on: Moraxella catarrahalis 2604; experiment: as above; type: cell-based; details: Table 1, Assay A, BHI agar, 35-37° C., about 20 to 24 hours; code C = Moraxella catarrahalis 2604; unit assumed
Protocol: as §1, §2, §3, §4

[5] = tested on: Staphylococcus aureus ATCC 6538P; experiment: as above; type: cell-based; details: Table 1, Assay A, BHI agar, 35-37° C., about 20 to 24 hours; code A = Staphylococcus aureus ATCC 6538P; unit assumed
Protocol: as §1, §2, §3, §4

[6] = tested on: Streptococcus pneumoniae ATCC 6303; experiment: as above; type: cell-based; details: Table 1, Assay A, BHI agar, 35-37° C., about 20 to 24 hours; code F = Streptococcus pneumoniae ATCC 6303; unit assumed
Protocol: as §1, §2, §3, §4

[7] = tested on: Enterococcus faecalis PIU 1967; experiment: Assay B: in vitro antibacterial activity, broth microdilution MIC (NCCLS); type: cell-based; details: Table 2, Assay B, cation-adjusted Mueller Hinton broth, 35° C., 16 to 20 hr; code B = Enterococcus faecalis PIU 1967; unit assumed
Summary of the method: (§5)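 MIC is the lowest concentration with no visible growth after serial two-fold dilution in cation-adjusted Mueller Hinton broth, approximately 5×10^5 CFU/mL inoculum, 16-20 h at 35 °C in air (NCCLS). Broth for H. influenzae gets 5 g/L yeast extract, 0.3 mmol/L hematin and 15 mg/L NAD, for S. pneumoniae 3% lysed horse blood; both incubated 20-24 h.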

Escherichia coli JUHL [8] = experiment: as above; type: cell-based; details: Table 2, Assay B, cation-adjusted Mueller Hinton broth, 35° C., 16 to 20 hr; code D = Escherichia coli JUHL; unit assumed
Summary of the method: as §5

[9] = tested on: Haemophilus influenzae DILL AMP R; experiment: as above; type: cell-based; details: Table 2, Assay B, Mueller Hinton broth with yeast extract, hematin and NAD, 20 to 24 hr; code E = Haemophilus influenzae DILL AMP R; unit assumed
Summary of the method: as §5

[10] = tested on: Staphylococcus aureus ATCC 6538P; experiment: as above; type: cell-based; details: Table 2, Assay B, cation-adjusted Mueller Hinton broth, 35° C., 16 to 20 hr; code A = Staphylococcus aureus ATCC 6538P; unit assumed
Summary of the method: as §5

[11] = tested on: Streptococcus pneumoniae ATCC 6303; experiment: as above; type: cell-based; details: Table 2, Assay B, Mueller Hinton broth with 3% lysed horse blood, 20 to 24 hr; code F = Streptococcus pneumoniae ATCC 6303; unit assumed
Summary of the method: as §5

Antibacterial Activity (MIC's), B [1]: 0.78 µg/mL
Antibacterial Activity (MIC's), D (Escherichia coli JUHL [2]): 0.39 µg/mL
Antibacterial Activity (MIC's), E [3]: 0.25 µg/mL
Antibacterial Activity (MIC's), C [4]: 0.2 µg/mL
Antibacterial Activity (MIC's), A [5]: 0.2 µg/mL
Antibacterial Activity (MIC's), F [6]: 0.25 µg/mL
SMILES: CC1NCCc2cc(-c3ccc4c(=O)c(C(=O)O)cn(C5CC5)c4c3OC(F)F)sc21.Cl (centres unmarked) [Example 52, 1-cyclopropyl-8-diflouromethoxy-7-(7-methyl-4,5,6,7-tetrahydrotheino(2,3-c)pyrindin-2-yl)-4-oxo-1,4-dihydro-3-quinolinecarboxylic acid hydrochloride]

melting point: 181 to 183 °C
SMILES: COc1c(-c2cc3c(s2)CCC/C3=N\OCc2cccnc2)ccc2c(=O)c(C(=O)O)cn(C3CC3)c12 (as salt: hydrochloride) [Example 182, 1-cyclopropyl-8-methoxy-4-oxo-7-((4E)-4-((3-pyridinylmethoxy)imino)-4,5,6,7-tetrahydro-1-benzothien-2-yl)-1,4-dihydro-3-quinolinecarboxylic acid]

Antibacterial Activity (MIC's), B [7]: 0.03 µg/mL
Antibacterial Activity (MIC's), D (Escherichia coli JUHL [8]): 0.06 µg/mL
Antibacterial Activity (MIC's), E [9]: 0.015 µg/mL
Antibacterial Activity (MIC's), A [10]: 0.008 µg/mL
Antibacterial Activity (MIC's), F [11]: 0.015 µg/mL
melting point: 148 to 153 °C (dec.)
SMILES: COc1c(-c2cc3c(s2)C(N)CCC3)c(F)cc2c(=O)c(C(=O)O)cn(C3CC3)c12.Cl (centres unmarked) [Example 228, 7-(7-amino-4,5,6,7-tetrahydro-1-benzothien-2-yl)-1-cyclopropyl-6-fluoro-8-methoxy-4-oxo-1,4-dihydro-3-quinolinecarboxylic acid hydrochloride]

melting point: 266 to 267 °C
SMILES: COc1c(-c2cc3c(s2)CCCC3=O)ccc2c(=O)c(C(=O)O)cn(C3CC3)c12 [Example 50, 1-cyclopropyl-8-methoxy-4-oxo-7-(4-oxo-4,5,6,7-tetrahydro-1-benzothien-2-yl)-1,4-dihydro-3-quinolinecarboxylic acid]

melting point: 178 to 179 °C
SMILES: COc1c(-c2cc3c(s2)CCC/C3=N\OCc2ccccn2)ccc2c(=O)c(C(=O)O)cn(C3CC3)c12 (as salt: hydrochloride) [Example 183, 1-cyclopropyl-8-methoxy-4-oxo-7-((4E)-4-((2-pyridinylmethoxy)imino)-4,5,6,7-tetrahydro-1-benzothien-2-yl)-1,4-dihydro-3-quinolinecarboxylic acid]

Antibacterial Activity (MIC's), B [7]: 0.5 µg/mL
Antibacterial Activity (MIC's), D (Escherichia coli JUHL [8]): 0.5 µg/mL
Antibacterial Activity (MIC's), E [9]: 0.25 µg/mL
Antibacterial Activity (MIC's), A [10]: 0.03 µg/mL
Antibacterial Activity (MIC's), F [11]: 0.5 µg/mL
melting point: 93 to 94 °C
SMILES: COc1c(-c2cc3c(s2)CCC(C)(C)C3O)ccc2c(=O)c(C(=O)O)cn(C3CC3)c12 (centres unmarked) [Example 213, 1-cyclopropyl-7-(4-hydroxy-5,5-dimethyl-4,5,6,7-tetrahydro-1-benzothien-2-yl)-8-methoxy-4-oxo-1,4-dihydro-3-quinolinecarboxylic acid]

Antibacterial Activity (MIC's), B [7]: 0.5 µg/mL
Antibacterial Activity (MIC's), D (Escherichia coli JUHL [8]): 8 µg/mL
Antibacterial Activity (MIC's), E [9]: 0.5 µg/mL
Antibacterial Activity (MIC's), A [10]: 0.03 µg/mL
Antibacterial Activity (MIC's), F [11]: 2 µg/mL
melting point: 135 to 138 °C
SMILES: COc1c(-c2cc3c(s2)CCC(C)(C)/C3=N\O)ccc2c(=O)c(C(=O)O)cn(C3CC3)c12 [Example 233, 1-cyclopropyl-7-((4E/Z)-4-(hydroxyimino)-5,5-dimethyl-4,5,6,7-tetrahydro-1-benzothien-2-yl)-8-methoxy-4-oxo-1,4-dihydro-3-quinolinecarboxylic acid]

Antibacterial Activity (MIC's), B [7]: 0.06 µg/mL
Antibacterial Activity (MIC's), D (Escherichia coli JUHL [8]): 0.125 µg/mL
Antibacterial Activity (MIC's), E [9]: 0.03 µg/mL
Antibacterial Activity (MIC's), A [10]: 0.015 µg/mL
Antibacterial Activity (MIC's), F [11]: 0.03 µg/mL
melting point: 174 to 178 °C
SMILES: COc1c(-c2cc3c(s2)C(N)CCC3)ccc2c(=O)c(C(=O)O)cn(C3CC3)c12.Cl (centres unmarked) [Example 201, 7-(7-amino-4,5,6,7-tetrahydro-1-benzothien-2-yl)-1-cyclopropyl-8-methoxy-4-oxo-1,4-dihydro-3-quinolinecarboxylic acid hydrochloride]

Antibacterial Activity (MIC's), B [7]: 0.008 µg/mL
Antibacterial Activity (MIC's), D (Escherichia coli JUHL [8]): 0.03 µg/mL
Antibacterial Activity (MIC's), E [9]: ≤ 0.004 µg/mL
Antibacterial Activity (MIC's), A [10]: ≤ 0.004 µg/mL
Antibacterial Activity (MIC's), F [11]: 0.03 µg/mL
SMILES: O=C(O)c1cn(C2CC2)c2c(F)c(-c3cc4c(s3)C(O)CCC4)c(F)cc2c1=O (centres unmarked) [Example 295, 1-cyclopropyl-6,8-difluoro-7-(7-hydroxy-4,5,6,7-tetrahydro-1-benzothien-2-yl)-4-oxo-1,4-dihydroquinoline-3-carboxylic acid]

Antibacterial Activity (MIC's), B [7]: 0.5 µg/mL
Antibacterial Activity (MIC's), D (Escherichia coli JUHL [8]): 0.25 µg/mL
Antibacterial Activity (MIC's), E [9]: 0.125 µg/mL
Antibacterial Activity (MIC's), A [10]: 0.03 µg/mL
Antibacterial Activity (MIC's), F [11]: 0.06 µg/mL
SMILES: COc1c(-c2cc3c(s2)CC(C)(C)CC3N)ccc2c(=O)c(C(=O)O)cn(C3CC3)c12.Cl (centres unmarked) [Example 238, 7-(4-amino-6,6-dimethyl-4,5,6,7-tetrahydro-1-benzothien-2-yl)-1-cyclopropyl-8-methoxy-4-oxo-1,4-dihydro-3-quinolinecarboxylic acid hydrochloride]

Continued, compound first:

SMILES: CC1CNCc2sc(-c3nc4c(cc3F)c(=O)c(C(=O)O)cn4C3CC3)cc21.Cl (centres unmarked)
melting point: 288 to 290 °C

SMILES: Br.CC1(C)CNCc2cc(-c3ccc4c(=O)c(C(=O)O)cn(C5CC5)c4n3)sc21
melting point: > 300 °C (dec.)

SMILES: CC1NCCc2cc(-c3ccc4c(=O)c(C(=O)O)cn(C5CC5)c4n3)sc21.Cl (centres unmarked)
melting point: 310 to 312 °C

SMILES: Br.CC1(C)CNCc2cc(-c3ccc4c(=O)c(C(=O)O)cn(C5CC5)c4c3)sc21
melting point: > 300 °C (dec.)

SMILES: Br.CC1(C)CNCc2cc(-c3nc4c(cc3F)c(=O)c(C(=O)O)cn4C3CC3)sc21
melting point: 258 to 262 °C (dec.)

SMILES: COc1c(-c2cc3c(s2)CNCC3C)ccc2c(=O)c(C(=O)O)cn(C3CC3)c12.Cl (centres unmarked)
melting point: 254 to 259 °C

SMILES: COc1c(-c2cc3c(s2)C(O)CCC3)ccc2c(=O)c(C(=O)O)cn(C3CC3)c12 (centres unmarked) [Example 41, 1-cyclopropyl-7-(7-hydroxy-4,5,6,7-tetrahydro-1-benzothien-2-yl)-8-methoxy-4-oxo-1,4-dihydro-3-quinolinecarboxylic acid]
melting point: 238 to 240 °C

SMILES: COc1c(-c2cc3c(s2)CCCC3O)ccc2c(=O)c(C(=O)O)cn(C3CC3)c12 (centres unmarked) [Example 38, 1-cyclopropyl-7-(4-hydroxy-4,5,6,7-tetrahydro-1-benzothien-2-yl)-8-methoxy-4-oxo-1,4-dihydro-3-quinolinecarboxylic acid]
melting point: 237 to 239 °C

SMILES: Cl.O=C(O)c1cn(C2CC2)c2nc(-c3cc4c(s3)CNCC4)ccc2c1=O
melting point: 298 to 300 °C

SMILES: COc1c(-c2cc3c(s2)CCC(CO)=C3)ccc2c(=O)c(C(=O)O)cn(C3CC3)c12 [Example 44, 1-cyclopropyl-7-(5-(hydroxymethyl)-6,7-dihydro-1-benzothien-2-yl)-8-methoxy-4-oxo-1,4-dihydro-3-quinolinecarboxylic acid]
melting point: 205 to 206 °C

SMILES: CC1CNCc2sc(-c3ccc4c(=O)c(C(=O)O)cn(C5CC5)c4c3)cc21.Cl (centres unmarked)
melting point: 295 to 298 °C

SMILES: Br.COc1c(-c2cc3c(s2)C(C)(C)CNC3)ccc2c(=O)c(C(=O)O)cn(C3CC3)c12
melting point: 212 to 217 °C (dec.)

SMILES: Br.COc1c(-c2cc3c(s2)CCNC3C)ccc2c(=O)c(C(=O)O)cn(C3CC3)c12 (centres unmarked)
melting point: 202 to 205 °C (dec.)
